Experimental data published in US9850219B1, “Phenothiazine derivatives and methods of use thereof” (Acenda Pharma, Inc., priority 2016, dated 2017).

How the values were obtained:
MCF7 = assay: Cytotoxicity, sulforhodamine B (SRB) assay, MCF7; assay type: cell-based, human; settings: MCF7, Breast, 48 h
Description: (§1) Human non-small cell lung cancer (NSCLC) cell lines (e.g., A549, H441GL and H1299), colon cancer cell lines (e.g., HCT116 and DLD1), breast cancer cell lines (e.g., MCF7 and MDA-MB-231), and pancreatic cancer cell lines (e.g., PANC-1 and SUIT-2) were used in cytotoxicity studies. These NSCLC cell lines have intrinsic resistance to epidermal growth factor receptor (EGFR) inhibitors, e.g., gefitinib. A549 and H441GL are EGFR-wild type adenocarcinoma cell lines. H1299 is an EGFR-wild type large cell carcinoma cell line. HCT116 and DLD1 are metastatic colon cell lines. MCF7 is a hormone-responsive breast cancer cell line. MDA-MB-231 is a triple-negative breast cancer cell line. PANC-1 is a metastatic adenocarcinoma cell line. SUIT-2 is a pancreatic ductal adenocarcinoma cell line.
(§2) All cell lines were grown and maintained in RPMI medium supplemented with 10% fetal bovine serum (FBS, Invitrogen), 2 mM L-glutamine, 100 U/mL penicillin, and 100 μg/mL streptomycin. For cell the culture experiment, stock solution (10 mM) of each test compound was dissolved in dimethyl sulfoxide (DMSO; Sigma).
(§3) Cells were plated in 96-well plates at a density of 2000 cells per well in triplicate. The cells in each well were treated on the third day (to ensure proper plating efficiency and vitality) with different concentrations (0-50 μM) of each test compound for 48 h.
(§4) Cell viability was assessed using the sulforhodamine B (SRB) assay. The medium was discarded, and the adherent cells were fixed by 100 μL of cold 10% trichloroacetic acid (w/v) in each well for 1 h at 4° C. After fixation, cells were stained with 100 μL/well of 0.4% (w/v, in 1% acetic acid) SRB solution for 30 min at room temperature, and then washed 5 times with 1% acetic acid. After air-drying, 100 μL of 10 mM Tris base was added to each well and the absorbance was read at 530 nm. Cytotoxicity is expressed as the percent of cells in drug treated wells relative to number of cells in the solvent only control (set to 100%). Each experiment was performed independently in triplicate and cytotoxicity IC50 value of each test compound was calculated from cytotoxicity data obtained at various concentrations.

PANC-1 = assay: Cytotoxicity, sulforhodamine B (SRB) assay, PANC-1; assay type: cell-based, human; settings: PANC-1, Pancreas, 48 h, NA = no activity
Description: as §1, §2, §3, §4

SUIT-2 = assay: Cytotoxicity, sulforhodamine B (SRB) assay, SUIT-2; assay type: cell-based, human; settings: SUIT-2, Pancreas, 48 h
Description: as §1, §2, §3, §4

lung cancer cells = assay: Cytotoxicity SRB assay, summary of Table 2; assay type: cell-based, Human; settings: summary in words of Table 2
Description: as §1, §3, §4
NA indicates no activity.

MDA-MB-231 = assay: Cytotoxicity, sulforhodamine B (SRB) assay, MDA-MB-231; assay type: cell-based, human; settings: MDA-MB-231, Breast, 48 h
Description: as §1, §2, §3, §4

A549 = assay: Cytotoxicity, sulforhodamine B (SRB) assay, A549; assay type: cell-based, Human; settings: A549, 48 h, NA indicates no activity
Description: as §1, with “These NSCLC cell lines have intrinsic resistance to epidermal growth factor receptor (EGFR) inhibitors, e.g., gefitinib.” left out
as §2, §3, §4

H441GL = assay: Cytotoxicity, sulforhodamine B (SRB) assay, H441GL; assay type: cell-based, Human; settings: 48 h, NA indicates no activity
Description: as §1, with “These NSCLC cell lines have intrinsic resistance to epidermal growth factor receptor (EGFR) inhibitors, e.g., gefitinib.” left out
as §2, §3, §4

H441GL cells [1] = assay: Study 2: tumor size in mouse lung cancer model; assay type: in vivo, NOD/SCID mice; settings: Study 2, 0.0127 mmol/kg daily, i.p.; for Tumor Size [Fold Change from Week 3 (Mean ± SD, n = 4)] Week 3: Week 3 (baseline, start of treatment)
Method: (§5) H441GL cells (1×10^6 cells in 100 μL phosphate-buffered saline/injection) were subcutaneously injected into the right flank of NOD/SCID mice (female, 4-6 weeks old). Mice were allowed 2 weeks for tumor growth. On the first day of Week 3 post injection, tumor-bearing mice were randomly divided into control group (DMSO vehicle, intraperitoneal (i.p.) injection) and test compound treatment groups (5 mg/kg/day, 5 days/week, i.p. injection). Over the period of 10 weeks, tumorigenesis in both groups was measured using a caliper on a weekly basis. The change in tumor size was expressed as in fold change from Week 3. In this study body weight of each mouse was also recorded at the end of each study week.
In this study, the daily dose was 0.0127 mmol/kg instead of 5 mg/kg.

H441GL cells [2] = assay: Study 1: tumor size in mouse lung cancer model; assay type: in vivo, NOD/SCID mice; settings: Study 1, 5 mg/kg/day, 5 days/week, i.p.; for Tumor Size [Fold Change from Week 3 (Mean ± SD, n = 4)] Week 3: Week 3 (baseline, start of treatment)
Method: as §5

H1299 = assay: Cytotoxicity, sulforhodamine B (SRB) assay, H1299; assay type: cell-based; settings: Homo sapiens, NCI-H1299, H1299, 48 h
Description: as §1, with “These NSCLC cell lines have intrinsic resistance to epidermal growth factor receptor (EGFR) inhibitors, e.g., gefitinib.” left out
as §2, §3, §4

SMILES | IC50 (MCF7) [µM] | IC50 (PANC-1) [µM] | IC50 (SUIT-2) [µM] | inhibition of cell proliferation of lung cancer cells (lung cancer cells) | IC50 (MDA-MB-231) [µM] | IC50 (A549) [µM] | IC50 (H441GL) [µM] | IC50 (A549; Homo sapiens) [µM] | IC50 (H441GL; Homo sapiens) [µM] | other results
COCCOCCOCCN1CCN(CCCN2c3ccccc3Sc3ccc(Cl)cc32)CC1 [Compound 4-1a] | 12.8 | 12.3 | 13.2 | inhibit cell proliferation | 11.9 | 32.5 | 13.2 | – | – | –
COCCOCCOCCOCCOCCOCCN1CCN(CCCN2c3ccccc3Sc3ccc(Cl)cc32)CC1 [Compound 4-2a] | 13.2 | 13.1 | 13.5 | inhibit cell proliferation | 18.1 | 10.9 | 9.1 | – | – | Tumor Size [Fold Change from Week 3 (Mean ± SD, n = 4)] Week 3 (H441GL cells [1]): 1 ± 0 Fold Change; Tumor Size [Fold Change from Week 3 (Mean ± SD, n = 4)] Week 9 (H441GL cells [1]): 10.3 ± 1.6 Fold Change; Tumor Size [Fold Change from Week 3 (Mean ± SD, n = 4)] Week 13 (H441GL cells [1]): 25.6 ± 5.1 Fold Change
COCCOCCOCCOCCOCCOCCOCCOCCOCCOCCOCCOCCN1CCN(CCCN2c3ccccc3Sc3ccc(Cl)cc32)CC1 [Compound 4-3a] | 10 | 7.1 | 25.4 | inhibit cell proliferation | 15.6 | 11.9 | 12.7 | – | – | Tumor Size [Fold Change from Week 3 (Mean ± SD, n = 4)] Week 3 (H441GL cells [1]): 1 ± 0 Fold Change; Tumor Size [Fold Change from Week 3 (Mean ± SD, n = 4)] Week 9 (H441GL cells [1]): 12.5 ± 1.5 Fold Change; Tumor Size [Fold Change from Week 3 (Mean ± SD, n = 4)] Week 13 (H441GL cells [1]): 32.6 ± 4.3 Fold Change
COCCOCCOCCOCCOCCOCCOCCOCCOCCOCCOCCOCCOCCOCCOCCOCCN1CCN(CCCN2c3ccccc3Sc3ccc(Cl)cc32)CC1 [Compound 4-4a] | – | – | – | inhibit cell proliferation | – | 20.2 | 12.9 | – | – | –
COCCOCCOCCOCCOCCOCCOCCOCCOCCOCCOCCOCCOCCOCCOCCOCCN1CCN(CCCN2c3ccccc3Sc3ccc(C(F)(F)F)cc32)CC1 [Compound 4-4b] | – | – | – | – | – | – | 36.4 | – | – | –
COCCOCCOCCOC(=O)N1CCN(CCCN2c3ccccc3Sc3ccc(Cl)cc32)CC1 [Compound 5-1a, NDP-CO—O—[CH2CH2O]3—CH3] | 15.5 | 6.7 | 18.6 | inhibit cell proliferation | 22.2 | 15.7 | 16 | – | – | Tumor Size [Fold Change from Week 3 (Mean ± SD, n = 4)] Week 3 (H441GL cells [2]): 1 ± 0 Fold Change; Tumor Size [Fold Change from Week 3 (Mean ± SD, n = 4)] Week 9 (H441GL cells [2]): 24.9 ± 4.3 Fold Change; Tumor Size [Fold Change from Week 3 (Mean ± SD, n = 4)] Week 13 (H441GL cells [2]): 55.4 ± 10.8 Fold Change
COCCOCCOCCOCCOCCOCCOC(=O)N1CCN(CCCN2c3ccccc3Sc3ccc(Cl)cc32)CC1 [Compound 5-2a, NDP-CO—O—[CH2CH2]6—CH3] | 15.3 | 6.9 | 16.2 | inhibit cell proliferation | 21.6 | 25.2 | 18.7 | – | – | Tumor Size [Fold Change from Week 3 (Mean ± SD, n = 4)] Week 3 (H441GL cells [2]): 1 ± 0 Fold Change; Tumor Size [Fold Change from Week 3 (Mean ± SD, n = 4)] Week 9 (H441GL cells [2]): 28.0 ± 6.5 Fold Change; Tumor Size [Fold Change from Week 3 (Mean ± SD, n = 4)] Week 13 (H441GL cells [2]): 66.2 ± 18.4 Fold Change
COCCOCCOCCOCCOCCOCCOCCOCCOCCOCCOCCOCCOC(=O)N1CCN(CCCN2c3ccccc3Sc3ccc(Cl)cc32)CC1 [Compound 5-3a, NDP-CO—O—[CH2CH2O]12—CH3] | 6.5 | 5 | 11.3 | inhibit cell proliferation | 8.9 | 2.7 | 3 | – | – | Tumor Size [Fold Change from Week 3 (Mean ± SD, n = 4)] Week 3 (H441GL cells [2]): 1 ± 0 Fold Change; Tumor Size [Fold Change from Week 3 (Mean ± SD, n = 4)] Week 9 (H441GL cells [2]): 23.7 ± 3.4 Fold Change; Tumor Size [Fold Change from Week 3 (Mean ± SD, n = 4)] Week 13 (H441GL cells [2]): 53.9 ± 10.1 Fold Change
COCCOCCOCCOCCOCCOCCOCCOCCOCCOCCOCCOCCOCCOCCOCCOCCOC(=O)N1CCN(CCCN2c3ccccc3Sc3ccc(Cl)cc32)CC1 [Compound 5-4a, NDP-CO—O—[CH2CH2O]16—CH3] | – | – | – | inhibit cell proliferation | – | 6.2 | 3 | – | – | –
COCCOCCOCCOCCOCCOCCOCCOCCOCCOCCOCCOCCOCCOCCOCCOCCOC(=O)N1CCN(CCCN2c3ccccc3Sc3ccc(C(F)(F)F)cc32)CC1 [Compound 5-4b, NDT-CO—O—[CH2CH2O]16—CH3] | – | – | – | inhibit cell proliferation | – | 13.8 | 17.5 | – | – | –
COCCOCCOCCOCC(=O)N1CCN(CCCN2c3ccccc3Sc3ccc(Cl)cc32)CC1 [Compound 6-1a, NDP-CO—[CH2CH2O]3—CH3] | – | – | – | inhibit cell proliferation | – | – | – | 25.8 | 21.5 | –
COCCOCCOCCOCC(=O)N1CCN(CCCN2c3ccccc3Sc3ccc(C(F)(F)F)cc32)CC1 [Compound 6-1b, NDT-CO—[CH2CH2O]3—CH3] | – | – | – | inhibit cell proliferation | – | – | – | 17 | 16.2 | –
COCCOCCOCCOCCOCCOCCOCC(=O)N1CCN(CCCN2c3ccccc3Sc3ccc(Cl)cc32)CC1 [Compound 6-2a, NDP-CO—[CH2CH2O]6—CH3] | – | – | – | inhibit cell proliferation | – | – | – | 31.5 | 25.2 | –
COCCOCCOCCOCCOCCOCCOCC(=O)N1CCN(CCCN2c3ccccc3Sc3ccc(C(F)(F)F)cc32)CC1 [Compound 6-2b, NDT-CO—[CH2CH2O]6—CH3] | – | – | – | inhibit cell proliferation | – | 15.5 | 15.5 | – | – | –
COCCOCCOCCOCCOCCOCCOCCOCCOCCOCCOCCOCCOCC(=O)N1CCN(CCCN2c3ccccc3Sc3ccc(Cl)cc32)CC1 [Compound 6-3a, NDP-CO—[CH2CH2O]12—CH3] | – | – | – | inhibit cell proliferation | – | – | – | 22.3 | 24.3 | –
COCCOCCOCCOCCOCCOCCOCCOCCOCCOCCOCCOCCOCC(=O)N1CCN(CCCN2c3ccccc3Sc3ccc(C(F)(F)F)cc32)CC1 [Compound 6-3b, NDT-CO—[CH2CH2O]12—CH3] | – | – | – | – | – | 20.6 | – | – | – | –
COCCOCCOCCOCCOCCOCCOCCOCCOCCOCCOCCOCCOCCOCCOCCOCCOCC(=O)N1CCN(CCCN2c3ccccc3Sc3ccc(Cl)cc32)CC1 [Compound 6-4a, NDP-CO—[CH2CH2O]16—CH3] | – | – | – | – | – | – | – | – | 39.1 | –
COCCOCCOCCOCCOCCOCCOCCOCCOCCOCCOCCOCCOCCOCCOCCOCCOCC(=O)N1CCN(CCCN2c3ccccc3Sc3ccc(C(F)(F)F)cc32)CC1 [Compound 6-4b, NDT-CO—[CH2CH2O]16—CH3] | – | – | – | – | – | – | – | 44.2 | 30 | –
FC(F)(F)c1ccc2c(c1)N(CCCN1CCNCC1)c1ccccc1S2 [NDT, N-desmethyl trifluoperazine, reference compound] | – | – | – | inhibit cell proliferation | – | – | – | 6.3 | 3.9 | IC50 (H1299): 6.9 µM
